# Test results: publication PMC11858653, “Design, Synthesis and Bioactive Evaluation of Topo I/c-MYC Dual Inhibitors to Inhibit Oral Cancer via Regulating the PI3K/AKT/NF-κB Signaling Pathway” (Molecules, 2025)
# Assays:
# Type in all cases: cell-based, human
# [1] = system: Bax, Bcl-2, Cleaved PARP1/PARP1 in Cal27 cells; assay: Western blot of apoptosis-related proteins
# Method: (§1) After Cal27 cells had been treated with the desired concentration of each drug for 24 h, the cells were collected and the total protein was extracted. The cells were then separated on a gel of appropriate concentration and transferred to a PVDF membrane. After blocking with milk, the membrane was incubated with primary antibody at 4 °C overnight. Subsequently, the membrane was incubated with horseradish peroxidase-coupled secondary antibody for 2 h. Finally, the protein bands were used to detect the immunoreactive signal using an enhanced chemiluminescence kit.
# [2] = system: LC3, p62, Beclin-1 in Cal27 cells; assay: Western blot of autophagy-related markers
# Method: In addition, in order to further clarify the potential mechanism of autophagy induced by compound 7be, Western blot analysis was used to detect the expression of autophagy-related markers, including microtubule-associated protein 1 light chain protein-3 protein (LC3), p62 and Beclin-1. In the process of autophagy, LC3 is essential for the maturation of the autophagosome and its fusion with the lysosome.
# as §1
# c-MYC protein = assay: Western blot of c-MYC protein in Cal27 cells; conditions: Cal27, 24 h
# Method: as §1
# c-MYC = assay: RT-qPCR of c-MYC transcription in Cal27 cells; conditions: Cal27, 24 h
# Method: Cal27 cells were plated in a 6-well plate and incubated for 12 h at 37 °C in a humidified atmosphere with 5% CO2, then compound 7be was added at final concentrations of 1 μM, 2 μM, 3 μM and 4 μM. After incubation for 24 h, cells were harvested, and the RNA was extracted according to the manufacturer’s instructions. Total RNA was used as a template for reverse transcription. The cDNA was obtained and applied directly for further qPCR. According to the manufacturer’s protocol, the real-time PCR was performed on a real-time PCR apparatus. The total volume of 20 μL of quantitative reaction mixtures contained 10 μL of SYBR Green qPCR Mix, 0.4 μL PCR Forward Primer (10 μM), 0.4 μL PCR Reverse Primer (10 μM) and 2 μL of cDNA (Table S4). The c-MYC mRNA levels were normalized to the GAPDH mRNA level of each sample. Results of real-time PCR were analyzed using the 2^−ΔCt method.
smiles,measurement,setting,value
"Cc1cc(C)c2c(n1)S(=O)(=O)c1c-2nc(NCCN2CCCCC2)c2ccccc12 [7be, 7,9-Dimethyl-5-((2-(piperidin-1-yl)ethyl)amino) pyrido[3′,2′:4,5]thieno[3,2-c]isoquinoline 11,11-dioxide]",Cleaved PARP1/PARP1,[1],up-regulated
same,anti-apoptotic protein Bcl-2,[1],down-regulated
same,pro-apoptotic protein Bax,[1],up-regulated
same,expression of autophagy biomarkers Beclin-1 and LC3-II,[2],upregulated
same,expression of p62,[2],decreased
same,concentration needed to significantly downregulate the level of c-MYC protein,c-MYC protein,2 µM
same,concentration needed to significantly inhibit the transcription of c-MYC,c-MYC,8 µM
